Experimental data: ChEMBL document CHEMBL4406914, “Impact of Minor Structural Modifications on Properties of a Series of mTOR Inhibitors” (ACS Med Chem Lett, 2019)
≈ marks a conversion by molar mass, not a printed value.

How the values were obtained:
[1] = molecular target: mTORC1 (Homo sapiens, UniProt P42345); experiment: Inhibition of mTORC1 in human A431 cells assessed as S6RP phosphorylation incubated for 3 hrs by HTRF assay; assay type: cell-based
[2] = Lipophilicity, ChromlogD of compound at 0.5 mM at pH 6.5 by UPLC-UV analysis; conditions: buffer, pH 6.5, 500 µM
[3] = Metabolic stability in human liver microsomes assessed as parent compound remaining at 1 uM measured at 15 mins in presence of phase 1 metabolism cofactors by LC-MS/MS analysis; assay type: ADME, Microsome; conditions: read-out: Stability
[4] = molecular target: Serine/threonine-protein kinase mTOR (Homo sapiens, UniProt P42345); experiment: Inhibition of human recombinant GST-tagged mTOR catalytic domain (1360 to 2549 residues) expressed in baculovirus expression system using GFP-4E-BP1 peptide as substrate incubated for 1 hr by LanthaScreen assay
[5] = Kinetic aqueous solubility of compound in phosphate buffer at pH 7.4 at 100 uM at 20 degree C shaken for 24 hrs by HPLC analysis; assay type: physicochemical; conditions: read-out: Kinetic_solubility
[6] = Hepatic intrinsic clearance in human Hepatocytes assessed per at 1 uM measured upto 90 mins by LC-MS/MS analysis; assay type: ADME, cell-based, Hepatocyte; conditions: 1.5 h
[7] = molecular target: mTORC2 (Homo sapiens, UniProt P42345); experiment: Inhibition of mTORC2 in human A431 cells assessed as AKT phosphorylation at S473 residue incubated for 3 hrs by HTRF assay; assay type: cell-based
[8] = molecular target: Phosphatidylinositol 4,5-bisphosphate 3-kinase catalytic subunit alpha isoform (Homo sapiens, UniProt P42336)
Chain of Phosphatidylinositol 4,5-bisphosphate 3-kinase catalytic subunit alpha isoform (P42336 whole entry, canonical isoform): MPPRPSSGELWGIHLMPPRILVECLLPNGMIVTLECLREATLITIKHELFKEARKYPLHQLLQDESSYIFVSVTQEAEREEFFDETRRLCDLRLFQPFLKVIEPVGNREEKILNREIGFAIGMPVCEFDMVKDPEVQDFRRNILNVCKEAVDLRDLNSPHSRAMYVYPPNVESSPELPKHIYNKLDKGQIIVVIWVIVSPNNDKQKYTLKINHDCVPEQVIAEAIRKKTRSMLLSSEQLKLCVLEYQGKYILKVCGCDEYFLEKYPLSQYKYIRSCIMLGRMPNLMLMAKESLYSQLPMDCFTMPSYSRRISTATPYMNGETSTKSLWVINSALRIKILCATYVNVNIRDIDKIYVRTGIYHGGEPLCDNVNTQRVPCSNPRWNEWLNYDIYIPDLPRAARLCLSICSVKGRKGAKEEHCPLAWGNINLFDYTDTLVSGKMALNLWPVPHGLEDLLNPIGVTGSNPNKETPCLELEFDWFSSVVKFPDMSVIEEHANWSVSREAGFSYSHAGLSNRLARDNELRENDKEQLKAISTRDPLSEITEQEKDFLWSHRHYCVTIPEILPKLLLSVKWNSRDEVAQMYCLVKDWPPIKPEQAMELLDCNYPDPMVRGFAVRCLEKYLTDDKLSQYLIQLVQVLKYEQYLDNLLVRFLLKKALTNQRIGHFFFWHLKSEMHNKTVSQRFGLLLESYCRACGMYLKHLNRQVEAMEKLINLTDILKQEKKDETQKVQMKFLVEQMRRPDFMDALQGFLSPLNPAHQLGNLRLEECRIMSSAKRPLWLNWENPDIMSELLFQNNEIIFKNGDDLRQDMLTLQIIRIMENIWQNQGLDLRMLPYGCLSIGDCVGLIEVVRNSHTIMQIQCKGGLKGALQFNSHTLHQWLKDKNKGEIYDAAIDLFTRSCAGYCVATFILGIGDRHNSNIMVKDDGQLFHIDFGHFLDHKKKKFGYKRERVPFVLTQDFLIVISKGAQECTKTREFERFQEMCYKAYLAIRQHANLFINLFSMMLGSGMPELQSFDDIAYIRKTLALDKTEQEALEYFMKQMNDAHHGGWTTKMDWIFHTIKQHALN
Description: Inhibition of PI3Kalpha (unknown origin) using PIP2 as substrate measured after 30 mins by TR-FRET assay

| SMILES | IC50 [1] [nM] | ChromlogD6.5 [2] | remaining at 0.25 h, 1 µM [3] [%] | Ki [4] [nM] | solubility kinetic at 24 h, 100 µM [5] [µM] | CLH [6] [µL/min] | IC50 [7] [nM] | Ki [8] [nM] |
| --- | --- | --- | --- | --- | --- | --- | --- | --- |
| CC(C)n1nc(-c2ccc3oc(N)nc3c2)c2c(Br)nc(N)nc21 | 35 | 1.8 | 94 | 21 | 4 (≈ 1.55 µg/mL) | 55 | 60 | 1000 |
| CC(C)n1nc(-c2ccc3oc(N)nc3c2)c2c(F)nc(N)nc21 | 40 | 1.8 | 83 | 13 | < 1 | 57 | 80 | 2600 |
| COc1nc(N)nc2c1c(-c1ccc3oc(N)nc3c1)nn2C(C)C | 420 | 1.6 | > 95 | 370 | < 1 | – | 680 | 250 |
| CC(C)n1nc(-c2ccc3oc(N)nc3c2)c2c(N)nc(N)nc21 | 4 | -0.1 | > 95 | 4 | 88 (≈ 28.5 µg/mL) | < 5 | 11 | 150 |
| CC(C)n1nc(-c2ccc3oc(N)nc3c2)c2c(C#N)nc(N)nc21 | – | 1.8 | > 95 | 2200 | < 1 | < 5 | – | > 10000 |
| CC(C)n1nc(-c2ccc3oc(N)nc3c2)c2c(C(F)(F)F)nc(N)nc21 | – | 2.4 | > 95 | 2300 | < 1 | < 5 | – | > 10000 |
| CC(C)n1nc(-c2ccc3oc(N)nc3c2)c2c(=O)[nH]c(N(C)C)nc21 | – | 2.1 | 90 | 1700 | 2 (≈ 0.707 µg/mL) | < 5 | – | > 10000 |
| CC(C)n1nc(-c2ccc3oc(N)nc3c2)c2c(CO)nc(N)nc21 | – | 0.2 | > 95 | 4000 | 82 (≈ 27.8 µg/mL) | < 5 | – | > 10000 |
| Cc1nc(N)nc2c1c(-c1ccc3oc(N)nc3c1)nn2C(C)C | 40 | 0.8 | > 95 | 62 | 74 (≈ 23.9 µg/mL) | < 5 | 200 | 990 |
| CCCCn1nc(-c2ccc3oc(N)nc3c2)c2c(Cl)nc(N)nc21 | 7 | 2.3 | – | 11 | < 1 | – | 20 | 4600 |
| CC(C)n1nc(-c2ccc3oc(N)nc3c2)c2c(N)ncnc21 [SAPANISERTIB] | – | 0.4 | > 95 | – | 82 (≈ 25.4 µg/mL) | < 5 | – | – |
| CNc1nc2c(c(-c3ccc4oc(N)nc4c3)nn2C(C)C)c(=O)[nH]1 | 240 | 1.5 | > 95 | 190 | < 1 | < 5 | 360 | > 10000 |
| CCCCn1nc(-c2ccc3oc(N)nc3c2)c2c(C)nc(N)nc21 | 30 | 1.4 | – | 33 | 5.2 (≈ 1.75 µg/mL) | – | 90 | 2200 |
| CC(C)n1nc(-c2ccc3oc(N)nc3c2)c2c(=O)[nH]c(N)nc21 | 40 | 0.4 | > 95 | 20 | 9.2 (≈ 2.99 µg/mL) | < 5 | 200 | 3200 |
| Cc1nc2c(c(-c3ccc4oc(N)nc4c3)nn2C(C)C)c(=O)[nH]1 | 45 | 1.2 | > 95 | 40 | 3 (≈ 0.973 µg/mL) | < 5 | 90 | > 10000 |
| CC(C)n1nc(-c2ccc3oc(N)nc3c2)c2c(Cl)nc(N)nc21 | 8 | 1.7 | 92 | – | 2 (≈ 0.688 µg/mL) | 11 | 20 | 920 |
| CC(C)n1nc(-c2ccc3oc(N)nc3c2)c2cnc(N)nc21 | 7 | 1.1 | 94 | 6 | 1.6 (≈ 0.495 µg/mL) | 150 | 15 | 780 |
| CCc1nc(N)nc2c1c(-c1ccc3oc(N)nc3c1)nn2C(C)C | 60 | 1.2 | 93 | 50 | 62 (≈ 20.9 µg/mL) | < 5 | 140 | 85 |
